For assay [1], the target named is T1, QhTERT cells that express FGFR2c (Homo sapiens, UniProt P21802).
T1 construct: expressed in transfected cells; host or cells: QhTERT (human non-dysplastic Barrett's esophagus cells immortalized with hTert)
Briefly: Apparent association time constant by flow cytometry. The settings on record: for apparent association time constant k: 5 μM, RT, 0 to 30 min; for time scale for onset of binding: from k. The format is binding. As to the method: We measured the apparent association time constant of the peptide reagent to QhTERT/FGFR2c cells to assess binding onset.^46 Cells were grown to ˜80% confluence in 10 cm dishes, and detached with PBS-based cell dissociation buffer (Invitrogen). Cells (˜10^5) were incubated with 5 μM SRR-Cy5.5 at RT for various time intervals ranging from 0 to 30 min. The cells were centrifuged, and washed with cold PBS. Flow cytometry analysis was performed as described above, and the median fluorescence intensity (y) were measured on flow cytometry at different time points (t) using Flowjo software. The rate constant k was calculated by fitting the data to a first order kinetics model, y(t)=Imax[1−exp^(−kt)], where Imax=maximum value using Prism 5.0 software (GraphPad Inc).

Assay [2] has as its target T1, QhTERT cells that express FGFR2c. Description: Competition for reagent binding with unlabeled peptide (confocal microscopy). Conditions: unlabeled peptide 50 μM and greater (up to 500 μM) vs 0 μM; 5 μM SRR*-Cy5.5; 4° C. The method, then: We administered unlabeled SRR*, and used confocal microscopy to observe competition for binding of SRR*-Cy5.5 to QhTERT cells that express FGFR2c, FIG. 3A-L. Approximately 10^3 cells were grown to ˜70% confluence on cover glass in triplicate. Unlabeled peptides at concentrations of 0, 50, 100, 150, 250, and 500 μM were incubated with the cells for 30 min at 4° C. The cells were washed and incubated with 5 μM of the target peptide for another 30 min at 4° C. The cells were washed and fixed with 4% PFA for 5 min. The cells were washed with PBS and mounted with ProLong Gold reagent containing DAPI (Invitrogen).

Assay [3] relates to phosphorylation of FGFR2 (p-FGFR), AKT (p-AKT) and ERK (p-ERK) in QhTERT cells that express FGFR2c. Description: Effect on cell signaling, Western blot, FGFR2c cells. Conditions: peptide 5 or 100 μM, FGF1 100 ng/mL, 20 min, vs untreated cells. The format is cell-based, human. The method, then:
(§1) QhTERT cells that overexpress either FGFR2b or FGFR2c were seeded in 12-well flat-bottom plates with 500 μL of serum-free medium for 16 hours. FGF1 (#2232-FA-025, R&D systems) was reconstituted to a concentration of 100 μg/mL using PBS, diluted with 0.1% bovine serum albumin, and added to the cells at final concentrations of 100 ng/mL for 20 min in separate wells. Heparin (#H3149-10KU, Sigma) with final concentration of 100 unit/mL was also added to increase stability. In addition, peptides at concentrations of 5 and 100 μM were incubated for 20 min in separate wells. The cells were washed with PBS and lysed in RIPA buffer containing protease inhibitors (#11836170001, Roche, Basel, Switzerland). Lysates were separated by gel electrophoresis, transferred to polyvinylidene difluoride membranes (#ISEQ00010, Millipore), and detected by immunoblotting using an enhanced chemiluminescence system (#RPN2106, GE Healthcare). Anti-FGFR2 antibody (#SC 122, Santa Cruz Biotechnology), anti-phospho-FGFR (#3471, Cell Signaling Technology), anti-AKT (#4691P, Cell Signaling Technology), anti-ERK1/2 (#4695P, Cell Signaling Technology), anti-phospho-AKT (pS473; #4060P, Cell Signaling Technology), anti-phospho-ERK1/2 (#4370P, Cell Signaling Technology), and anti-tubulin (#32-2600, Invitrogen) were used as per manufacturer's instructions.
(A western blot detects proteins with antibodies after separation by electrophoresis.)

Assay [4] has as its system phosphorylation of FGFR2 (p-FGFR), AKT (p-AKT) and ERK (p-ERK) in QhTERT cells that express FGFR2b. Briefly: Effect on cell signaling, Western blot, FGFR2b cells. Format: cell-based, human. The settings on record: peptide 5 or 100 μM, FGF1 100 ng/mL, 20 min, vs untreated cells. The method, then: as §1
Assay [5] deals with QhTERT cells wild type. Description: Confocal fluorescence microscopy, binding to wild-type QhTERT cells. Details: species or system human. The source says:
(§2) All human esophagus specimens were obtained with written, informed patient consent per approval and guidelines of the University of Michigan Institutional Review Board (IRB). Human non-dysplastic Barrett's esophagus (BE) cells immortalized with hTert (QhTERT) were obtained from the American Type Culture Collection (ATCC) and cultured in keratinocyte-serum free medium containing bovine pituitary extract and human recombinant EGF (ThermoFisher #17005042). QhTERT cells with stable expression of FGFR2b or FGFR2c were provided by DGB. We cultured these cells with keratinocyte-serum free medium containing bovine pituitary extract and human recombinant EGF (ThermoFisher #17005042) and added 1 μg/mL of puromycin-dihydrochloride (Invitrogen #A11138-03). All cells were cultured at 37° C. in 5% CO2, and were passaged using 0.25% EDTA containing trypsin (Mediatech Inc). A hemocytometer was used to count the cell number. Peptide synthesis reagents were obtained from either Anaspec or AAPPTEC with the highest grade available (>99% purity) and used without further purification. Solvents and other chemical reagents were obtained from Sigma-Aldrich, unless otherwise stated.
(§3) On confocal microscopy, we validated specific peptide reagent binding to human BE cells that express FGFR2.

The target of assay [6] is T2, QhTERT cells that express FGFR2b (Homo sapiens, UniProt P21802).
T2 construct: expressed in transfected cells; host or cells: QhTERT (human non-dysplastic Barrett's esophagus cells immortalized with hTert)
T2 sequence (P21802 22-822 isoform P21802-3 limits assumed): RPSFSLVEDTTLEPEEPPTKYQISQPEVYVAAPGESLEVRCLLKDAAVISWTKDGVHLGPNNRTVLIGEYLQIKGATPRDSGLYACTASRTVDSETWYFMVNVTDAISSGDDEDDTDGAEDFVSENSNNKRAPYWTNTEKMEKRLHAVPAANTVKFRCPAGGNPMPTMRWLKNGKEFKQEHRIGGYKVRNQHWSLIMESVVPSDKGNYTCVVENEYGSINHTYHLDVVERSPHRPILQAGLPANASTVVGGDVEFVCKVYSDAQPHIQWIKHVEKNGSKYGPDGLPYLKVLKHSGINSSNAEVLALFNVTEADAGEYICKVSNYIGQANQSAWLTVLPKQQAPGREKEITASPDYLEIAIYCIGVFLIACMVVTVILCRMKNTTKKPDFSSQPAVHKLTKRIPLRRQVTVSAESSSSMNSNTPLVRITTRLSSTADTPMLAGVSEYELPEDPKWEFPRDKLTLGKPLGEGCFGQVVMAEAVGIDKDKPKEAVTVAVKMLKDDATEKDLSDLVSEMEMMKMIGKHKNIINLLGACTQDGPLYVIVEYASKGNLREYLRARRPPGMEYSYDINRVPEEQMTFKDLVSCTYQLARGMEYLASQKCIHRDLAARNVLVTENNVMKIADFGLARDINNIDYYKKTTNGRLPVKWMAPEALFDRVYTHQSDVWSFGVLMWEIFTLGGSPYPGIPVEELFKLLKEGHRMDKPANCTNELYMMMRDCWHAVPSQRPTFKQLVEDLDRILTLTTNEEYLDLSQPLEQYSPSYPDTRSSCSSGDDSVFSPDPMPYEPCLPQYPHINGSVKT
Briefly: Confocal fluorescence microscopy, binding to QhTERT cells expressing FGFR2b.
From the text: as §2, §3

Assay [7] addresses T1, QhTERT cells that express FGFR2c. Description: Confocal fluorescence microscopy, binding to QhTERT cells expressing FGFR2c.
From the text: as §2, §3

The target is the same in assay [8]. Description: Apparent dissociation constant by flow cytometry. Format: binding. Conditions: 0 to 200 nM, 4° C, 1 hour. As to the method: We measured the apparent dissociation constant kd for peptide reagent binding to cells to assess binding affinity.^45 The Cy5.5-labeled peptide reagent was serially diluted in PBS at concentrations ranging from 0 to 200 nM in 25 nM increments. QhTERT/FGFR2c cells (˜10^5) were incubated with peptide at 4° C. for 1 hour, washed with cold PBS, and the mean fluorescence intensities were measured using flow cytometry. The equilibrium dissociation constant kd=1/ka was calculated by performing a least squares fit of the data to the non-linear equation I=(I0+Imaxka[X])/([…]). I0 and Imax are the initial and maximum fluorescence intensities, corresponding to no peptide and at saturation, respectively, and [X] represents the concentration of the bound peptide reagent. Prism 5.0 software (GraphPad Inc) was used to calculate kd.
(In general: In flow cytometry, cells or beads pass a laser one at a time.)

Assay [9] concerns sections of human gastric cancer. Description: Confocal microscopy staining of human gastric cancer sections ex vivo. The format is binding. The source says:
We observed good co-localization of peptide and antibody binding on merged images, FIG. 11C. Representative histology (H&E) for gastric cancer is shown, FIG. S6D.

The test system of assay [10] is sections of human esophageal squamous cell cancer (SCC). Description: Confocal microscopy staining of human esophageal squamous cell carcinoma sections ex vivo. The format is binding. The source says: We observed good co-localization of peptide reagent and antibody binding on merged images, FIG. 10C. Representative histology (H&E) for SCC is shown, FIG. 10D.
Assay [11] deals with human esophageal specimens (SQ, BE, HGD, EAC). Briefly: Confocal microscopy staining of sections of human esophagus ex vivo. Format: binding. As to the method: Formalin-fixed sections of human esophageal specimens were deparaffinized, and antigen retrieval was performed using standard methods. Briefly, the sections were incubated in xylene for 3 min 3×, washed with 100% ethanol for 2 min 2×, and washed with 95% ethanol for 2 min 2×. Rehydration was performed by washing in dH2O for 5 min 2×. Antigen unmasking was performed by boiling the slides in 10 mM sodium citrate buffer with 0.05% Tween at pH 6.0, and then maintaining at sub-boiling temperature for 15 min. The slides were cooled for 30 min, and the sections were washed in dH2O for 3 min 3× and in PBS for 5 min. Blocking was performed with DAKO protein blocking agent (X0909, DAKO) for 1 hour at RT. The peptides were incubated at a concentration of 1 μM for 10 min at RT. The sections were washed in PBS for 3 min 3×, and incubated with 1:1000 dilution of monoclonal anti-FGFR2 (Abcam, ab58201) overnight at 4° C.
The sections were then washed in PBS for 5 min 3×. A 1:500 dilution of AF488-labeled secondary antibody (goat anti-mouse) was added to each section and incubated for 30 min at RT. The secondary antibody solution was removed by washing with PBS for 5 min 3×. The sections were then mounted with ProLong Gold reagent containing DAPI (Invitrogen). The mean fluorescence intensities from 3 boxes (dimensions of […]) located completely within the surface epithelium of each specimen were measured. […] Serial sections were processed for routine histology (H&E), and were reviewed by an expert gastrointestinal pathologist (HDA).

“Also recorded” adds a separate entry of the source. Where no end group is shown, it is not given here.

Consider five compounds from patent US11406720B2, “Fibroblast growth factor receptor 2-specific peptide reagents and methods” (THE REGENTS OF THE UNIVERSITY OF MICHIGAN, priority 2017, dated 2022).

T1 sequence (P21802 22-821): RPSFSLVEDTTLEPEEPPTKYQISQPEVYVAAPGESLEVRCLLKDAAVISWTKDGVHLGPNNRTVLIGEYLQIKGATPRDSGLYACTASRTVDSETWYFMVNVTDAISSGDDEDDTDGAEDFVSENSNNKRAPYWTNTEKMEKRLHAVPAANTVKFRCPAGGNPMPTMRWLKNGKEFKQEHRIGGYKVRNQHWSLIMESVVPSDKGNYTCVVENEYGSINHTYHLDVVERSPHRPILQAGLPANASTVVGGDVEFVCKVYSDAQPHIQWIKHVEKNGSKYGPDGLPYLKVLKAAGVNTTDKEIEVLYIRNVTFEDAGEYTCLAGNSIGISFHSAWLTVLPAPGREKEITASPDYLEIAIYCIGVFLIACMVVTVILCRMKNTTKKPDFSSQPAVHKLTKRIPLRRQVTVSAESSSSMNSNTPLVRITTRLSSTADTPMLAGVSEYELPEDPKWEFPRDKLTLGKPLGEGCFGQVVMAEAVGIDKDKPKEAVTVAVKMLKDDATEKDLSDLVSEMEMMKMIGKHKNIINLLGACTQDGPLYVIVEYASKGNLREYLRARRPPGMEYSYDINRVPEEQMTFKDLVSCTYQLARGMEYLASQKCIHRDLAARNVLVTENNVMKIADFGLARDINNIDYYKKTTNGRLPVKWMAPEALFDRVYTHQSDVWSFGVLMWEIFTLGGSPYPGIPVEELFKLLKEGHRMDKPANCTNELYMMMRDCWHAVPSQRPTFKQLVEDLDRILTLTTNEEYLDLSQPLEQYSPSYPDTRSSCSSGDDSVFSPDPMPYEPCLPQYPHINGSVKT

Turning to `C[C@H](NC(=O)[C@@H](NC(=O)[C@H](CCCNC(=N)N)NC(=O)[C@H](Cc1ccccc1)NC(=O)[C@H](CO)NC(=O)[C@H](C)NC(=O)[C@@H]1CCCN1C(=O)[C@H](CCCNC(=N)N)NC(=O)[C@H](CCCNC(=N)N)NC(=O)[C@@H](N)CO)[C@@H](C)O)C(=O)N[C@@H](CCCNC(=N)N)C(=O)N[C@@H](CCC(=O)O)C(N)=O` (relative stereo) [SRR*, SRRPASFRTARE], the “apparent association time constant k” value in assay [1] is 0.16 min⁻¹. Moreover, the “time scale for onset of binding” value in assay [1] is on record as 6.2 min. For the same compound, the “change in binding (mean fluorescence intensity) of SRR*-Cy5.5 on addition of unlabeled peptide” value in assay [2] was “significant reduction; also recorded: significant decrease”. Moreover, the “phosphorylation of FGFR2 (p-FGFR), AKT (p-AKT) and ERK (p-ERK)” value in assay [3] and in assay [4] was “no obvious change” throughout.
As for “FGF1: FGF1 (#2232-FA-025, R&D systems), positive control that binds FGFR2b and FGFR2c [reference compound]”, the “phosphorylation of FGFR2 (p-FGFR), AKT (p-AKT) and ERK (p-ERK)” value is “strong phosphorylation activity; also recorded: shows phosphorylation activity” in assay [3] and “to some extent; also recorded: shows phosphorylation activity” in assay [4].
Take “SPS*-Cy5.5: scrambled sequence SPSRERTFRARA for control, labeled with Cy5.5 via a GGGSK linker (SPSRERTFRARAGGGS-{K(Cy5.5)-NH2}) [reference compound]”: the “binding signal on cell surface (confocal microscopy)” value in assay [5], in assay [6] and in assay [7] was “Minimal binding; also recorded: Minimal signal” each time.
With “SPSRERTFRARA [SPS*, unlabeled scrambled peptide used for control, reference compound]”, the “change in binding (mean fluorescence intensity) of SRR*-Cy5.5 on addition of unlabeled peptide” value in assay [2] is listed as “No significant difference; also recorded: Non-significant differences”.
For the compound “SRR*-Cy5.5: 12 amino acid sequence SRRPASFRTARE with fluorophore Cy5.5 attached via a GGGSK linker on the C-terminus (not fully specified (C-terminus))”, the “apparent association time constant k” value in assay [1] stood at 0.16 min⁻¹. For the same compound, the “time scale for onset of binding” value in assay [1] was ~6.2 min. In addition, the Kd in [8] is 68 nM. Further, the “binding signal on cell surface (confocal microscopy)” value is reported as “minimal signal” in assay [5], “strong signal; also recorded: strong binding” in [6] and “strong signal; also recorded: strong binding” in assay [7]. Besides, the “staining (fluorescence intensity) of section” value in [9] (human gastric cancer) was “strong fluorescence intensity; also recorded: strong binding”; in [9] (normal human stomach), “minimal fluorescence intensity; also recorded: minimal staining”; in [10] (human esophageal SCC), “strong fluorescence intensity; also recorded: strong binding”; in assay [10] (normal human esophagus), “minimal fluorescence intensity; also recorded: minimal staining”; in assay [11] (Barrett's esophagus (BE)) it was “minimal fluorescence intensity; also recorded: minimal staining”; in assay [11] (esophageal adenocarcinoma (EAC)), “strong signal; also recorded: strong binding”. In addition, the “staining (fluorescence intensity) of section” value in assay [11] (high-grade dysplasia (HGD)) was “strong signal; also recorded: strong binding”; in assay [11] (squamous (SQ)), “minimal fluorescence intensity; also recorded: minimal staining”. For the same compound, the “mean fluorescence intensity from gastric cancer versus normal” value in assay [9] (paired, two-sided t-test) is listed as “significantly greater”. Moreover, the “mean fluorescence intensity versus control SPS*-Cy5.5” value in [6] (compared with wild-type) and in assay [7] (compared with wild-type) was “significantly greater” in each case. The “mean fluorescence intensity from SCC versus normal” value in assay [10] (paired, two-sided t-test) is listed as “significantly greater”. In addition, in [11] (3 boxes of 30×30 μm^2), the “mean target-to-background (T/B) ratio for HGD and EAC versus BE and SQ” value is “significantly higher”. For the same compound, the “mean fluorescence intensity from HGD and EAC compared with BE” value in [11] (n=28, 33, 22, 17 specimens of SQ, BE, HGD, EAC) is on record as “significantly greater”.
